Active and inactive are the calls of the source. The rule behind the calls is not given here.

Data set [1] deals with MCF-10A. Briefly: Cytotoxicity against human MCF-10A cells exposed to UV incubated for 48 hrs by MTT assay. The data set is classed as toxicity, cell-based.
The subject of data set [2] is MDA-MB-231. Description: Induction of cell cycle arrest in human MDA-MB-231 cells assessed as accumulation at G0/G1 phase in presence of UV by PI staining based flow cytometry (reference value: 43.25 %). The data set is classed as functional. On the technique in general: Flow cytometry measures light scatter and fluorescence of single cells or particles in a stream.

A short description of data set [3]: Prodrug conversion in PBS at pH 7.4 exposed to UV assessed as 8-HQ release by measuring retention time at 50 uM measured for 30 mins by HPLC analysis. It is filed as ADME. To be noted: buffer, pH 7.4, 0.5 h.
Data set [4] has as its system MDA-MB-231. Description: Induction of apoptosis in human MDA-MB-231 cells assessed as necrotic cells incubated for 24 hrs in presence of UV by Annexin V-FITC/PI staining based flow cytometry (reference value: 3.6 %). The data set is classed as functional.
The test system of data set [5] is MDA-MB-231. Description: Induction of apoptosis in human MDA-MB-231 cells assessed as necrotic cells incubated for 24 hrs by Annexin V-FITC/PI staining based flow cytometry (reference value: 3.6 %). The data set is classed as functional.
Data set [6] deals with MDA-MB-231. Description: Cytotoxicity against human MDA-MB-231 cells incubated for 48 hrs in absence of UV by MTT assay. It is filed as functional, cell-based.
The nature of data set [7]: Hepatorenal toxicity in ICR mouse assessed as change in AST level at 30 mg/kg, iv measured after 48 hrs. The data set is classed as organism-based. To be noted: in vivo.
Data set [8] is described as follows: Hepatorenal toxicity in ICR mouse assessed as change in BUN level at 30 mg/kg, iv measured after 48 hrs. The data set is classed as organism-based. To be noted: in vivo.
The test system of data set [9] is MDA-MB-231. Description: Induction of apoptosis in human MDA-MB-231 cells assessed as late apoptotic cells incubated for 24 hrs by Annexin V-FITC/PI staining based flow cytometry (reference value: 2.4 %). The data set is classed as functional.
Data set [10] deals with MDA-MB-231. Briefly: Induction of apoptosis in human MDA-MB-231 cells assessed as late apoptotic cells incubated for 24 hrs in presence of UV by Annexin V-FITC/PI staining based flow cytometry (reference value: 2.4 %). The data set is classed as functional.
Data set [11] concerns MDA-MB-231. Description: Induction of apoptosis in human MDA-MB-231 cells assessed as early apoptotic cells incubated for 24 hrs in presence of UV by Annexin V-FITC/PI staining based flow cytometry (reference value: 1.94 %). It is filed as functional.
A short description of data set [12]: Hepatorenal toxicity in ICR mouse assessed as change in serum creatinine level at 30 mg/kg, iv measured after 48 hrs. The data set is classed as organism-based. To be noted: in vivo.
For data set [13], the system named is MDA-MB-231. Briefly: Induction of apoptosis in human MDA-MB-231 cells assessed as early apoptotic cells incubated for 24 hrs by Annexin V-FITC/PI staining based flow cytometry (reference value: 1.94 %). The data set is classed as functional.
Data set [14] is described as follows: Hepatorenal toxicity in ICR mouse assessed as change in ALT level at 30 mg/kg, iv measured after 48 hrs. It is filed as organism-based. The conditions noted are these: in vivo.
For data set [15], the system named is MDA-MB-231. Briefly: Induction of cell cycle arrest in human MDA-MB-231 cells assessed as accumulation at G0/G1 phase by PI staining based flow cytometry (reference value: 43.25 %). It is filed as functional.
The test system of data set [16] is MDA-MB-231. Briefly: Induction of apoptosis in human MDA-MB-231 cells assessed as viable cells incubated for 24 hrs by Annexin V-FITC/PI staining based flow cytometry (reference value: 92.06 %). The data set is classed as functional.
A short description of data set [17]: Prodrug conversion in PBS at pH 7.4 containing H2O2 assessed as PBAPE intermediate with exposed quinoline nitrogen by measuring retention time at 50 uM measured for 30 mins by HPLC analysis. The data set is classed as ADME. The conditions noted are these: buffer, pH 7.4, 0.5 h.
Data set [18] concerns MDA-MB-231. Description: Cytotoxicity against human MDA-MB-231 cells incubated for 48 hrs in presence of UV by MTT assay. The data set is classed as functional, cell-based. Background: Formazan colour is commonly taken as a measure of viable cells.
Data set [19] has as its system MDA-MB-231. Description: Induction of apoptosis in human MDA-MB-231 cells assessed as viable cells incubated for 24 hrs in presence of UV by Annexin V-FITC/PI staining based flow cytometry (reference value: 92.06 %). It is filed as functional.
Data set [20] can be described thus: Prodrug conversion in PBS at pH 7.4 exposed to UV assessed as 8-Hydroxy-1-(4-(4,4,5,5-tetramethyl-1,3,2-dioxaborolan-2-yl)benzyl)quinolin-1-ium bromide metabolite formation by measuring retention time at 50 uM measured for 30 mins by HPLC analysis. It is filed as ADME. The conditions noted are these: buffer, pH 7.4, 0.5 h.
Data set [21] concerns MDA-MB-231. Description: Inhibition of mitochondrial membrane potential in human MDA-MB-231 cells incubated for 24 hrs by JC-1 dye based analysis (reference value: 5.51 %). It is filed as functional.
For data set [22], the system named is MDA-MB-231. Briefly: Inhibition of mitochondrial membrane potential in human MDA-MB-231 cells incubated for 24 hrs in presence of UV by JC-1 dye based analysis (reference value: 5.51 %). The data set is classed as functional.

With `Br.CC1(C)OB(c2ccc(C[n+]3cccc4cccc(OCc5ccccc5[N+](=O)[O-])c43)cc2)OC1(C)C`, the Activity result in [1] is reported as “Non-toxic”; in data set [2], 58.23%; in [4], 4.21%; in data set [5], 1.03%; in [7], “Non-toxic”; in data set [8], “Non-toxic”. Moreover, the Activity is 10.76% in [9]; 19.66% in data set [10]; 23.32% in data set [11]; “Non-toxic” in [12]; 8.03% in data set [13]; “Non-toxic” in data set [14]. Also, the Activity in data set [15] is 45.12%; in [16] it was 80.18%; in [18], “Dose-dependent-effect”; in [19], 52.82%. Further, the Retention_time in [3] stood at 3.6 min; in data set [17], 14.8 min; in [20], 16.4 min. Also, the outcome in [6] was inactive. The “inhibition (INH)” value in [21] is listed as 15.85%; in [22] it was 62.81%.

The record behind these values is ChEMBL document CHEMBL6153037, “Developing dual-responsive quinolinium prodrugs of 8-hydroxyquinoline by harnessing the dual chelating sites” (Eur J Med Chem, 2025).
